Experimental findings from publication PMC9909341, “TLQP-21 is a low potency partial C3aR activator on human primary macrophages” (Frontiers in Immunology, 2023) are described below.

One assay deals with C3aR-deficient BMDMs. Description: phospho-ERK1/2 assay in C3aR-deficient BMDMs. The following applies: 10 min stimulation; n = 3 mice. Format: cell-based, mouse. How it is done:
Mouse bone marrow-derived macrophages (BMDMs) were obtained and cultured as previously described ([20], [21]). All experiments using mice were approved by the University of Queensland animal ethics committee. Wild-type and C3aR^-/- mice on a C57BL/6J genetic background (n = 3) were sacrificed by cervical dislocation. The tibia was removed and sterilised. Upon removal of both epiphyses, bone marrow cells were harvested by flushing the central cavity with complete RPMI-1640 medium using a 10 ml syringe attached to a 25-gauge needle. Cells were then cultured in complete RPMI-1640 medium (containing 10 % FBS, 100 IU/ml penicillin, 100 μg/ml streptomycin) supplemented with 100 ng/ml recombinant human macrophage colony stimulating factor on 10 mm square dishes. […]
(§1) Ligand-induced ERK1/2 phosphorylation was assessed using the AlphaLISA Surefire Ultra p-ERK1/2 (Thr202/Tyr204) kit (PerkinElmer, Melbourne, Australia) following the manufacturer’s protocol as previously described ([18], [20], [22]). […] On a Tecan Spark 20M (Tecan, Männedorf, Switzerland), the plate was measured using standard AlphaLISA settings.
Figure 4 TLQP-21 triggers ERK signalling through C3aR in murine bone marrow-derive macrophages. […] The phospho-ERK1/2 content in the cell lysate was measured and normalised to the medium only-treated levels before being combined. […]

Another assay deals with HMDMs. Description: homologous desensitisation control in HMDMs. Type of assay: cell-based, human. To be noted: pre-treatment 10 nM hC3a, 10 μM hTLQP-21 or mTLQP-21 for 30 min, then same ligand 10 min.
Description: HMDMs were generated and cultured as previously described ([20]), with experiments approved by The University of Queensland Human Research Ethics Committee. Briefly, human buffy coat blood from anonymous healthy donors was obtained through the Australian Red Cross Blood Service (Brisbane, Australia). Human CD14+ monocytes were isolated from blood using Lymphoprep density centrifugation (STEMCELL, Melbourne, Australia) followed by CD14+ MACS magnetic bead separation (Miltenyi Biotec, Sydney, Australia). […]
as §1
Figure 3 Agonistic and antagonistic activities of hTLQP-21 and mTLQP-21 in human monocyte-derived macrophages. […] The phospho-ERK1/2 content in the cell lysate was measured and normalised to the maximum hC3a/hC5a-induced levels before being combined. […]

Another assay has as its system BMDM (murine C3aR). Format: cell-based, mouse. How it is done: Mouse bone marrow-derived macrophages (BMDMs) were obtained and cultured as previously described ([20], [21]). All experiments using mice were approved by the University of Queensland animal ethics committee. Wild-type and C3aR^-/- mice on a C57BL/6J genetic background (n = 3) were sacrificed by cervical dislocation. The tibia was removed and sterilised. Upon removal of both epiphyses, bone marrow cells were harvested by flushing the central cavity with complete RPMI-1640 medium using a 10 ml syringe attached to a 25-gauge needle. Cells were then cultured in complete RPMI-1640 medium (containing 10 % FBS, 100 IU/ml penicillin, 100 μg/ml streptomycin) supplemented with 100 ng/ml recombinant human macrophage colony stimulating factor on 10 mm square dishes. Mature adherent macrophages for assays were harvested on day 6-7 by gentle scraping.
Ligand-induced ERK1/2 phosphorylation was assessed using the AlphaLISA Surefire Ultra p-ERK1/2 (Thr202/Tyr204) kit (PerkinElmer, Melbourne, Australia) following the manufacturer’s protocol as previously described ([18], [20], [22]). Briefly, CHO-K1, CHO-C3aR, CHO-C5aR1, HMDMs (50,000/well) or BMDMs (90,000/well) were seeded in tissue culture-treated 96-well plates (Corning, Corning, USA) for 24 h and serum-starved overnight. All ligand dilutions were prepared in serum-free medium (SFM) containing 0.1% BSA. For inhibition assays, cells were pre-treated with the following ligands (5 µM SB290157, or respective concentrations of hC3a, mC3a, hC5a, hTLQP-21, and mTLQP-21) or the solvent-only control for 30 min before agonist (hC3a, hTLQP-21 and mTLQP-21) addition. The concentration and identity of the ligands are described in detail in the figure legends. For stimulation, cells were treated with ligands at the indicated concentrations for 10 min at RT and then immediately lysed using AlphaLISA lysis buffer on a microplate shaker (450 rpm, 10 min). For the detection of phospho-ERK1/2 content, cell lysate (5 μL/well) was transferred to a 384-well ProxiPlate (PerkinElmer, Melbourne, Australia) and added to the donor and acceptor reaction mix (2.5 μL/well, respectively), followed by a 2-h incubation at RT in the dark. On a Tecan Spark 20M (Tecan, Männedorf, Switzerland), the plate was measured using standard AlphaLISA settings.
All experiments were conducted in triplicates and repeated on three separate occasions unless otherwise specified. Data was analysed using GraphPad software (Prism 9.1). Data from each individual repeat was normalised accordingly (as specified in the figure legends) before being combined and expressed as mean ± standard error of the mean (S.E.M.) unless otherwise described. For all dose-response studies, logarithmic concentration-response curves were plotted using combined data and analysed to determine the respective potency values. Statistical analysis was performed using two-way ANOVA with Dunnett’s post hoc analysis. Donor-matched comparisons were made for HMDM experiments. Differences were deemed significant when p < 0.05.
Figure 4 TLQP-21 triggers ERK signalling through C3aR in murine bone marrow-derive macrophages. BMDMs (90,000/well) from wildtype mice (A) or with C3aR knockout mice (B), were serum-starved overnight and then stimulated with respective ligands at the indicated concentrations for 10 min. The phospho-ERK1/2 content in the cell lysate was measured and normalised to the medium only-treated levels before being combined. Data represent mean ± S.E.M. of triplicate measurements using cells from 3 mice (n = 3).

With “hC3a: purified (plasma-derived) human C3a, purchased from Merck”, in the assay with C3aR-deficient BMDMs, the “ERK signalling in C3aR-deficient BMDMs” value is “Neither hC3a, nor the TLQP-21 peptides caused any significant ERK signalling activity in C3aR-deficient cells”. For the same substance, the “homologous desensitisation of ERK activity” value with HMDMs is listed as “significantly dampened the subsequent ERK activity triggered by these ligands”.

As to “C3a: Table 1 label: human C3a in CHO-C3aR and HMDM, recombinant mouse C3a in BMDM”, the “% C3a activity ± SE, BMDM” value in the assay on BMDM (murine C3aR) (relative to mC3a, wild-type BMDMs) was determined as 100 ± 4.1%. Besides, the “logEC50 ± SE (pERK1/2), BMDM” value in the assay on BMDM (murine C3aR) (wild-type BMDMs, 10 min stimulation at RT, C3a is recombinant mouse C3a) is listed as -8.1 ± 0.1. Moreover, in the assay with BMDM (murine C3aR) (wild-type C57BL/6J BMDMs, 90,000/well, 10 min stimulation at RT, AlphaLISA p-ERK1/2, n = 3 mice, C3a is recombinant mouse C3a, read-out: EC50 (pERK1/2), BMDM), the EC50 amounted to 8.4 nM.
